Test results published in ChEMBL document CHEMBL3217556, “Synthesis and anti-Helicobacter pylori activity of analogues of spirolaxine methyl ether” (2012).
≈ marks a conversion by molar mass, not a printed value.

system: Helicobacter pylori; experiment: Antibacterial activity against Helicobacter pylori assessed as bacterial colonies formation incubated for 24 hrs measured after up to 5 days culturing time by CFU counting analysis; format: functional

| MIC | Compound | MBC |
| --- | --- | --- |
| 2 µg/mL (≈ 4.78 µM) | COc1cc(OC)c2c(c1)[C@@H](CCCCC[C@H]1CCC[C@]3(CC[C@@H](C)O3)O1)OC2=O | 1 µg/mL (≈ 2.39 µM) |
| 3 µg/mL (≈ 6.51 µM) | COc1cc(OC)c2c(c1)[C@@H](CCCCCCCC[C@H]1CCC[C@]3(CC[C@H](C)O3)O1)OC2=O | 3 µg/mL (≈ 6.51 µM) |
| 3 µg/mL (≈ 7.74 µM) | COc1cc(OC)c2ccn(CCCC[C@H]3CCC[C@]4(CC[C@H](C)O4)O3)c2c1 | 3 µg/mL (≈ 7.74 µM) |
| > 100 µg/mL | COc1cc(OC)c2ccn(CCCCCCCC[C@H]3CCC[C@]4(CC[C@H](C)O4)O3)c2c1 | > 100 µg/mL |
| 12.5 µg/mL (≈ 31 µM) | COc1cc(OC)c2c(c1)N(CCCC[C@H]1CCC[C@]3(CC[C@H](C)O3)O1)C(=O)C2 | 12.5 µg/mL (≈ 31 µM) |
| 12.5 µg/mL (≈ 29.9 µM) | COc1cc(OC)c2c(c1)N(CCCCC[C@H]1CCC[C@]3(CC[C@H](C)O3)O1)C(=O)C2 | 12.5 µg/mL (≈ 29.9 µM) |
| 16 µg/mL (≈ 34.8 µM) | COc1cc(OC)c2c(c1)N(CCCCCCCC[C@H]1CCC[C@]3(CC[C@H](C)O3)O1)C(=O)C2 | 16 µg/mL (≈ 34.8 µM) |
| 12.5 µg/mL (≈ 30.9 µM) | COc1cc(OC)c2c(c1)[C@@H](CCCC[C@H]1CCC[C@]3(CC[C@H](C)O3)O1)OC2=O | 12.5 µg/mL (≈ 30.9 µM) |
| 8.3 µg/mL (≈ 20.7 µM) | COc1cc(OC)c2ccn(CCCCC[C@H]3CCC[C@]4(CC[C@H](C)O4)O3)c2c1 | 8.3 µg/mL (≈ 20.7 µM) |
